The values that follow are results of earlier work, collected in US20090239872A1, “TREATMENT OF MESOTHELIOMA” (priority 2002, published 2009).

Some targets named below: Flt-1 (Homo sapiens, UniProt P17948); c-Kit (Homo sapiens, UniProt P10721); Flt-4 (Homo sapiens, UniProt P35916).
What all share (settings): qualitative statement

Sequence of c-Kit (P10721 26-976): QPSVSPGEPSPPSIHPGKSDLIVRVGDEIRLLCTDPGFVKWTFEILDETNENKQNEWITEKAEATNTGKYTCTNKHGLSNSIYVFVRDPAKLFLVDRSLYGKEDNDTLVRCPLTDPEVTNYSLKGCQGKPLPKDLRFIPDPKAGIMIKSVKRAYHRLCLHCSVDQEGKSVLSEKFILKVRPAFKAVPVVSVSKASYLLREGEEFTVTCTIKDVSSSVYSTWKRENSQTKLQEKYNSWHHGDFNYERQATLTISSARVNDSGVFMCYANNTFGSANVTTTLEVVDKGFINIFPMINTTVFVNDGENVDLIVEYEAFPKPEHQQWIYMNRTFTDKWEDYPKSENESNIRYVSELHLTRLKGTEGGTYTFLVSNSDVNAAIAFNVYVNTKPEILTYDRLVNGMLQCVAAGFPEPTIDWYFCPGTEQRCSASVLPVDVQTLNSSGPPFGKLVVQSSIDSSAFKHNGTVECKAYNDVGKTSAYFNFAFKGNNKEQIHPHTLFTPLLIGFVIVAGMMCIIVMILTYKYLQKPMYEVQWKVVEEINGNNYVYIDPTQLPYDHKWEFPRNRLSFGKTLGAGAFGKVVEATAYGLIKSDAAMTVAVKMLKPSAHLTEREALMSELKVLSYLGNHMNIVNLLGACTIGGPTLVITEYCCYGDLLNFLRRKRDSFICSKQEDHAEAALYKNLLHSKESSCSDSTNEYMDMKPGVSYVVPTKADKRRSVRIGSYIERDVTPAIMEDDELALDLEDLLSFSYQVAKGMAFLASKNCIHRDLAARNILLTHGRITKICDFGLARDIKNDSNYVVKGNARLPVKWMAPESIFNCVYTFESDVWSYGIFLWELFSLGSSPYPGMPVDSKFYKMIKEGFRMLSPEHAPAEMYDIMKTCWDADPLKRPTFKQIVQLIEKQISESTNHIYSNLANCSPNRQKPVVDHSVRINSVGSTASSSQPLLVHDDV
Sequence of Flt-4 (P35916 25-1363, species assumed): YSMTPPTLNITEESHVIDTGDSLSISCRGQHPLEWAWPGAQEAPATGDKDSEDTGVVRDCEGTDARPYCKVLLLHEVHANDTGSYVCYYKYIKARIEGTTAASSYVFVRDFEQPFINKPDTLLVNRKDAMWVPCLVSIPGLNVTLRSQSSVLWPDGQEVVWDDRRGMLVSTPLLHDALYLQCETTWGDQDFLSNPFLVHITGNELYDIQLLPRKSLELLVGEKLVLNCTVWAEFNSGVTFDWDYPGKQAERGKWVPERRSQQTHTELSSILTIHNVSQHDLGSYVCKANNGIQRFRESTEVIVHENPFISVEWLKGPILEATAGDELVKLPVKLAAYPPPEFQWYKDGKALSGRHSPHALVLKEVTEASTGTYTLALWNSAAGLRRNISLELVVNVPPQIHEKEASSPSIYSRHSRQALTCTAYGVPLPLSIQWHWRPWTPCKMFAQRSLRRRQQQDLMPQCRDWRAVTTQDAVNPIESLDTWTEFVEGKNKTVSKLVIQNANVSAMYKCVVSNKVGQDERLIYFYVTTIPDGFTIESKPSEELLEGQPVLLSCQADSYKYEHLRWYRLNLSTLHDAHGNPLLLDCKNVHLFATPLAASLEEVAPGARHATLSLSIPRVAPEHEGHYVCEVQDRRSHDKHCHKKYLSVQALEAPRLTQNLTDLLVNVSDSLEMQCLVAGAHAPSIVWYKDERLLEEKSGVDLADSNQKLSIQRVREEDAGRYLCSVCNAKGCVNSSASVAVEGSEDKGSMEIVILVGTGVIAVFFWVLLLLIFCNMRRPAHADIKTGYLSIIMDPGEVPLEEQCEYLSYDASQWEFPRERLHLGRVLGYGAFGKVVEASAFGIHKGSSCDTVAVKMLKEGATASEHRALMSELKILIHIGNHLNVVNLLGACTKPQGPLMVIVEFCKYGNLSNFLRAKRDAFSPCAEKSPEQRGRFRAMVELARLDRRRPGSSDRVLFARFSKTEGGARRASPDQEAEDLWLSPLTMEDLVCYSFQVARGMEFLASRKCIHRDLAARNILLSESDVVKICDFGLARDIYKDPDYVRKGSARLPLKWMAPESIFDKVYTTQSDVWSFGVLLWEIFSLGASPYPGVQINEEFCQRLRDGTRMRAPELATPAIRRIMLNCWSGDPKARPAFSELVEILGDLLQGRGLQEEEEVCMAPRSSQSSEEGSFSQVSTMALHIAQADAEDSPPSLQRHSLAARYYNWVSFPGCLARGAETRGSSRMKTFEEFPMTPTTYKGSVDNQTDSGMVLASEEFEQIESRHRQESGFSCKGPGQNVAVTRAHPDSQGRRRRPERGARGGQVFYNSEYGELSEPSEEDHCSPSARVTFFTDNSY
Sequence of Flt-1 (P17948 27-1338, species assumed): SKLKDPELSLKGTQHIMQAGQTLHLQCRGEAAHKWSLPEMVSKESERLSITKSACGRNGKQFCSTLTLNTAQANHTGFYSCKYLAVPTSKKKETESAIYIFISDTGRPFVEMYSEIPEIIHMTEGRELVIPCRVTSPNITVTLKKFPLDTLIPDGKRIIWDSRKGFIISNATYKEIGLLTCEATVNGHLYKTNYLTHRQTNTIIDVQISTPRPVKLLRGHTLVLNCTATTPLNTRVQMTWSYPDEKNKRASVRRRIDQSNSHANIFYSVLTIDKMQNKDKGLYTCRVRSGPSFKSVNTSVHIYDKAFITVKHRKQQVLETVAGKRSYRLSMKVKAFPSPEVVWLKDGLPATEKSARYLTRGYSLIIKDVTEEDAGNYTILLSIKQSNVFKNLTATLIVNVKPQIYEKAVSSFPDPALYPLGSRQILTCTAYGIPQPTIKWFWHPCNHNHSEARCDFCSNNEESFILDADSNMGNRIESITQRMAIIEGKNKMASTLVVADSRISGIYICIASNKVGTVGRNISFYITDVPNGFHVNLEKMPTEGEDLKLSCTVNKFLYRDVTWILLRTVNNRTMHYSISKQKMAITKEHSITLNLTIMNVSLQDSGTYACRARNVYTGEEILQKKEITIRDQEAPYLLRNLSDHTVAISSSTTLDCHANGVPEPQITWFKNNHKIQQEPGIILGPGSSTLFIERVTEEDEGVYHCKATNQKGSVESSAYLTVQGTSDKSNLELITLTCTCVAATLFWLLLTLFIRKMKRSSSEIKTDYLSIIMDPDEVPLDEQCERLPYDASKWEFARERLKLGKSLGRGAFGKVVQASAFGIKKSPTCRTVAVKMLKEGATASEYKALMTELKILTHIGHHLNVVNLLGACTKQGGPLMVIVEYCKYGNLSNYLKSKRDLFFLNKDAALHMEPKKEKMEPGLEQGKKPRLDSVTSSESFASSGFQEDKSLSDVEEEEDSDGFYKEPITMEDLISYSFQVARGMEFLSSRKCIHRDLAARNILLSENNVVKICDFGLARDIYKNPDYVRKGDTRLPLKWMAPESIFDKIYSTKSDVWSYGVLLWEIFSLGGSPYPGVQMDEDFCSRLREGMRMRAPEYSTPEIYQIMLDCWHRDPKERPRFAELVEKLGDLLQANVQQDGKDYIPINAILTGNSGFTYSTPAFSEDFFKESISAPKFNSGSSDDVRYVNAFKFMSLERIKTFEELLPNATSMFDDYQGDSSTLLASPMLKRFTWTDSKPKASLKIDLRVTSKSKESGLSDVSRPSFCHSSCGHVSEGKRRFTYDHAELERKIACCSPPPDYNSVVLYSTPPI

Regarding `Clc1ccc(Nc2nnc(Cc3ccncc3)c3ccccc23)cc1` [ZK222584, 1-(4-chloroanilino)-4-(4-pyridylmethyl)phthalazine], the “inhibition of Flt-1” value at Flt-1 is “can also inhibit”. For the same compound, the “activity against c-Kit” value on c-Kit is given as “has activity”. Also, on Flt-4, the “inhibition of Flt-4” value is “can also inhibit”.
